Reference: PubChem BioAssay (NCI)
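Dose response: 5 concentrations. Exposure: 48 h. Format: 96-well plates. Endpoint: linear interpolation; highest concentration if not reached. At the TGI there is no net growth.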

How the values were obtained:
Test in all cases: NCI tumour cell line growth inhibition, 48 h
HCT-116 colon = test system: HCT-116 colon
M14 melanoma = test system: M14 melanoma
HCC-2998 colon = test system: HCC-2998 colon
HT29 colon = test system: HT29 colon
NCI-H23 lung = test system: NCI-H23 lung
CCRF-CEM leukemia = test system: CCRF-CEM leukemia
BT-549 breast = test system: BT-549 breast
NCI-H460 lung = test system: NCI-H460 lung
UACC-62 melanoma = test system: UACC-62 melanoma
COLO 205 colon = test system: COLO 205 colon
KM12 colon = test system: KM12 colon
UACC-257 melanoma = test system: UACC-257 melanoma
NCI/ADR-RES ovarian = test system: NCI/ADR-RES ovarian
SR leukemia = test system: SR leukemia
MDA-MB-231 breast = test system: MDA-MB-231 breast

Work on `O=c1[nH]ncc2[nH]c3c(c12)CCCc1ccccc1-3` yielded a TGI (HCT-116 colon) of over 100 µM, a TGI (M14 melanoma) of over 100 µM and a TGI (HCC-2998 colon) of 61.4 µM. It also gave a TGI (HT29 colon) of over 100 µM, a TGI (NCI-H23 lung) of over 100 µM and a TGI (CCRF-CEM leukemia) of over 100 µM. For the same molecule, the TGI (BT-549 breast) was over 100 µM, the TGI (NCI-H460 lung) was over 100 µM and the TGI (UACC-62 melanoma) was over 100 µM. The TGI (COLO 205 colon) was 53.2 µM, the TGI (KM12 colon) was over 100 µM and the TGI (UACC-257 melanoma) was over 100 µM. It also gave a TGI (NCI/ADR-RES ovarian) of over 100 µM.

With `COc1ccccc1OCc1nnc(SCC(=O)O)n1-c1ccccc1` the TGI (HCT-116 colon) was over 100 µM, the TGI (M14 melanoma) was over 100 µM and the TGI (HCC-2998 colon) was over 100 µM. It also gave a TGI (HT29 colon) of over 100 µM, a TGI (NCI-H23 lung) of over 100 µM and a TGI (CCRF-CEM leukemia) of over 100 µM. It also gave a TGI (NCI-H460 lung) of over 100 µM, a TGI (UACC-62 melanoma) of over 100 µM and a TGI (COLO 205 colon) of over 100 µM. For the same molecule, the TGI (KM12 colon) was over 100 µM, the TGI (UACC-257 melanoma) was over 100 µM and the TGI (SR leukemia) was over 100 µM.

`O=C(Cc1ccccc1)NN1C(=O)C(Cl)C1c1cc(Br)cc(Br)c1O` (stereo not drawn) gave a TGI (HCT-116 colon) of 16 µM, a TGI (M14 melanoma) of 45.6 µM and a TGI (HCC-2998 colon) of 31.1 µM. It also gave a TGI (HT29 colon) of 63.4 µM, a TGI (NCI-H23 lung) of 33.2 µM and a TGI (CCRF-CEM leukemia) of 24.1 µM. The TGI (NCI-H460 lung) was 22.4 µM, the TGI (UACC-62 melanoma) was 61.6 µM and the TGI (COLO 205 colon) was 44.8 µM. The TGI (KM12 colon) was over 100 µM, the TGI (UACC-257 melanoma) was 39.4 µM and the TGI (SR leukemia) was 13.1 µM.

`C/C(CC(=O)Nc1ccc(C)cc1)=N\NC(N)=S` was tested, and the TGI (HCT-116 colon) was over 100 µM, the TGI (M14 melanoma) was over 100 µM and the TGI (HCC-2998 colon) was over 100 µM. It also gave a TGI (HT29 colon) of over 100 µM, a TGI (NCI-H23 lung) of over 100 µM and a TGI (CCRF-CEM leukemia) of over 100 µM. The TGI (NCI-H460 lung) was over 100 µM, the TGI (UACC-62 melanoma) was over 100 µM and the TGI (COLO 205 colon) was over 100 µM. It also gave a TGI (KM12 colon) of over 100 µM and a TGI (UACC-257 melanoma) of over 100 µM.

Molecule `CN1C(=O)NC2(O)c3ccccc3C(=O)C12O` (stereo not drawn) has a TGI (HCT-116 colon) of over 100 µM, a TGI (M14 melanoma) of over 100 µM and a TGI (HT29 colon) of over 100 µM. It also gave a TGI (NCI-H23 lung) of over 100 µM, a TGI (CCRF-CEM leukemia) of over 100 µM and a TGI (NCI-H460 lung) of over 100 µM. It also gave a TGI (UACC-62 melanoma) of over 100 µM, a TGI (COLO 205 colon) of over 100 µM and a TGI (KM12 colon) of over 100 µM. The TGI (UACC-257 melanoma) was over 100 µM and the TGI (SR leukemia) was over 100 µM.

For `O=C(C1=CCC2(CC1)OCCO2)N(Cc1ccccc1)c1ccccc1I`, the TGI (HCT-116 colon) was 37.7 µM, the TGI (MDA-MB-231 breast) was 68.1 µM and the TGI (M14 melanoma) was 33.5 µM. The TGI (HCC-2998 colon) was 32.8 µM, the TGI (HT29 colon) was 36 µM and the TGI (NCI-H23 lung) was 44.1 µM. The TGI (NCI-H460 lung) was 46.4 µM, the TGI (UACC-62 melanoma) was 31.1 µM and the TGI (COLO 205 colon) was 36.5 µM. It also gave a TGI (KM12 colon) of 29.5 µM, a TGI (UACC-257 melanoma) of 46.7 µM and a TGI (NCI/ADR-RES ovarian) of 32.8 µM. The TGI (SR leukemia) was over 100 µM.

`O=c1[nH]nc2c3n[nH]c(=O)n3c3ccccc3n12` showed a TGI (HCT-116 colon) of over 100 µM, a TGI (M14 melanoma) of over 100 µM and a TGI (HCC-2998 colon) of over 100 µM. For the same molecule, the TGI (HT29 colon) was over 100 µM, the TGI (NCI-H23 lung) was over 100 µM and the TGI (CCRF-CEM leukemia) was over 100 µM. It also gave a TGI (NCI-H460 lung) of over 100 µM, a TGI (UACC-62 melanoma) of over 100 µM and a TGI (COLO 205 colon) of over 100 µM. The TGI (KM12 colon) was over 100 µM and the TGI (UACC-257 melanoma) was over 100 µM.

`CC(=O)NC1C(OCc2ccccc2)OC(CO)C(O)C1OCC(=O)NC(C)C(=O)NC(CCC(=O)OCCNC(=O)c1cccc2cc3ccccc3nc12)C(N)=O` (stereo not drawn) was tested, and the TGI (HCT-116 colon) was 31.8 µM, the TGI (M14 melanoma) was 42.1 µM and the TGI (HCC-2998 colon) was 40.4 µM. The TGI (HT29 colon) was over 100 µM, the TGI (NCI-H23 lung) was 48.6 µM and the TGI (BT-549 breast) was 45.8 µM. It also gave a TGI (NCI-H460 lung) of 57.8 µM, a TGI (UACC-62 melanoma) of 34.3 µM and a TGI (COLO 205 colon) of 64.8 µM. The TGI (KM12 colon) was 56.3 µM, the TGI (UACC-257 melanoma) was 66.3 µM and the TGI (NCI/ADR-RES ovarian) was 68.1 µM. It also gave a TGI (SR leukemia) of 45.3 µM.

With `O=C1c2ccccc2C(=O)N1C/C=N/NS(=O)(=O)c1ccc(Cl)cc1` the TGI (HCT-116 colon) was over 100 µM, the TGI (M14 melanoma) was over 100 µM and the TGI (HCC-2998 colon) was over 100 µM. For the same molecule, the TGI (HT29 colon) was over 100 µM, the TGI (NCI-H23 lung) was over 100 µM and the TGI (CCRF-CEM leukemia) was over 100 µM. The TGI (NCI-H460 lung) was over 100 µM, the TGI (UACC-62 melanoma) was over 100 µM and the TGI (COLO 205 colon) was over 100 µM. It also gave a TGI (UACC-257 melanoma) of over 100 µM and a TGI (SR leukemia) of over 100 µM.

For `O=c1cc2oc3ccc4ccccc4c3cc-2c(=O)[nH]1`, the TGI (HCT-116 colon) was 31.2 µM, the TGI (M14 melanoma) was 32.2 µM and the TGI (HCC-2998 colon) was 31.8 µM. For the same molecule, the TGI (HT29 colon) was 32.2 µM, the TGI (NCI-H23 lung) was 4.78 µM and the TGI (CCRF-CEM leukemia) was 2.6 µM. It also gave a TGI (BT-549 breast) of 11.2 µM, a TGI (NCI-H460 lung) of 53.1 µM and a TGI (UACC-62 melanoma) of 32.5 µM. It also gave a TGI (COLO 205 colon) of 30 µM, a TGI (KM12 colon) of 42.7 µM and a TGI (UACC-257 melanoma) of 30.6 µM. The TGI (NCI/ADR-RES ovarian) was 37.1 µM and the TGI (SR leukemia) was 11 µM.

`C[C@@H]1O[C@@H]2OCC[C@@H]2C2=C1C(=O)c1ccccc1C2=O` was tested, and the TGI (MDA-MB-231 breast) was over 100 µM, the TGI (M14 melanoma) was 14.2 µM and the TGI (HCC-2998 colon) was 35.4 µM. It also gave a TGI (HT29 colon) of over 100 µM, a TGI (NCI-H23 lung) of 23.4 µM and a TGI (CCRF-CEM leukemia) of 33.8 µM. It also gave a TGI (NCI-H460 lung) of 31.9 µM, a TGI (UACC-62 melanoma) of 17.4 µM and a TGI (COLO 205 colon) of 51.3 µM. The TGI (KM12 colon) was 30.7 µM, the TGI (UACC-257 melanoma) was 24.5 µM and the TGI (NCI/ADR-RES ovarian) was 14 µM. It also gave a TGI (SR leukemia) of 28.1 µM.

With `CN1C(=O)c2cccc3c([N+](=O)[O-])ccc(c23)C1=O` the TGI (HCT-116 colon) was 18.9 µM, the TGI (M14 melanoma) was 23.1 µM and the TGI (HCC-2998 colon) was 17.4 µM. It also gave a TGI (NCI-H23 lung) of 24.7 µM, a TGI (CCRF-CEM leukemia) of 39.5 µM and a TGI (NCI-H460 lung) of 11.7 µM. For the same molecule, the TGI (UACC-62 melanoma) was 4.03 µM, the TGI (COLO 205 colon) was 19.8 µM and the TGI (KM12 colon) was 18.3 µM. For the same molecule, the TGI (UACC-257 melanoma) was 21.6 µM and the TGI (SR leukemia) was 14 µM.

In the case of `CCN(CC)CC1CCCCN1CC(=O)N1c2ccc(Br)cc2C(=O)Nc2cccnc21` (stereo not drawn), the TGI (HCT-116 colon) is reported as over 100 µM, the TGI (MDA-MB-231 breast) is reported as over 100 µM and the TGI (M14 melanoma) is reported as over 100 µM. It also gave a TGI (HCC-2998 colon) of over 100 µM, a TGI (HT29 colon) of over 100 µM and a TGI (NCI-H23 lung) of over 100 µM. For the same molecule, the TGI (CCRF-CEM leukemia) was over 100 µM, the TGI (NCI-H460 lung) was over 100 µM and the TGI (UACC-62 melanoma) was over 100 µM. For the same molecule, the TGI (COLO 205 colon) was over 100 µM, the TGI (KM12 colon) was over 100 µM and the TGI (UACC-257 melanoma) was over 100 µM. It also gave a TGI (SR leukemia) of over 100 µM.
